Results from patent US20250296939A1, “BENZOTHIOPHENE COMPOUND” (Kyoto Pharmaceutical Industries, Ltd., priority 2022, published 2025).
pIC50: −log10 of the molar value.

Key:
[1] = target: GST-fused human Keap1 (amino acid residues: 325-642) protein (Homo sapiens (Human), UniProt Q14145); assay: FP assay (in vitro): inhibition of binding between Nrf2 and Keap1 by fluorescence polarization; conditions: 20 nM GST-fused human Keap1, 10 nM FITC-labeled Nrf2 peptide, 2 hr at room temperature
Description: Experimental Example 1: FP Assay (In Vitro)
The inhibitory activity of test compounds on the binding between Nrf2 and Keap1 was determined by fluorescence polarization. A solution of 50 mM Tris-HCl pH.8.0 (NACALAI, REF: 06938-15), and 5 mM DTT (SIGMA-ALDRICH, REF: 646563-10X.5 mL) was used as a buffer solution. 8 μL of a buffer solution containing 40 nM GST-fused human Keap1 (amino acid residues: 325-642) protein (Protein tech, REF: Ag0779) was taken in a black 384-well plate (final concentration 20 nM), and 4 μL of the test compound solution prepared to each concentration in buffer solution was added thereto. A well containing a portion of the buffer solution without Keap1 was placed as a negative control. A well with no compound was used as a positive control. 40 nM of FITC-labeled Nrf2 peptide (FITC-X-LQLDEETGEFLPIQ (X=ε-Acp), Peptide Institute Inc.) was added thereto (10 nM final concentration). The wells were incubated at room temperature for 2 hr, and then fluorescence polarization was measured with a plate reader SPECTRAMAX Paradigm (Molecular devices) at excitation wavelength of 485 nm and fluorescence wavelength of 535 nm. The fluorescence polarization of the negative control was set to 100% inhibition and that of the positive control to 0% inhibition, and the inhibitory rate upon addition of the test compound was calculated using the following formula.

[2] = test system: NQO1 activity in Hepa1c1c7 cells; assay: NAD(P)H: quinone oxidoreductase-1 (NQO1) enzyme induction assay (in vitro); type: cell-based, mouse; conditions: about 48 hr, ratio from the base without the compound; for fold induction at 0.4 µM: Mus musculus, Hepa-1c1c7, NQO1 activity upon addition of 400 nM of test compound
Description: Experimental Example 2: NAD(P)H: Quinone Oxidoreductase-1 (NQO1) Enzyme Induction Assay (In Vitro)
The NQO1 assay was performed based on a previous report (Methods in Enzymology 2004; 382: 243-258). Hepa1c1c7 cells (mouse hepatocyte cell line, ATCC, cat. no. CRL-2026) were cultured in D-MEM medium containing 10% FBS and 1% penicillin/streptomycin (5% CO2, 37° C.), and seeded into 96-well plates (Corning REF. 353072) at 1×10^4 cells/well. A portion of the wells were prepared with medium only for background measurement without seeding cells. The next day, 400 nM of the test compound (0.004% of the final concentration in DMSO) dissolved in DMSO was added thereto, and the wells were incubated for about 48 hr. A well without adding the test compound was prepared for base activity assay in part.
Cell lysate (solution containing 0.8% digitonin, 2 mM EDTA), reaction solution (solution containing 25 mM Tris-HCl, 0.07% albumin, 0.01% Tween-20, 2 U/mL glucose-6-phosphate dehydrogenase, 5 μM flavin adenine dinucleotide, 1 μM glucose-6-phosphate, 30 μM nicotinamide adenine dinucleotide phosphate, 0.03% 3-(4,5-dimethyl-2-thiazolyl)-2,5-diphenyltetrazolium bromide (MTT), and 50 μM menadione), stop solution (solution containing 0.3 mM dicoumarol and 5 mM potassium dihydrogen phosphate, pH 7.4) were prepared. After the medium was removed, 50 μL of the cell lysate was added and incubated at 37° C. for 10 minutes, followed by shaking at room temperature for 10 minutes. 200 μL of reaction solution was added thereto, and allowed to stand for 5 minutes at room temperature. 50 μL of the stop solution was added thereto, and absorbance was measured at 610 nm on a SpectraMax PLUS384 (Molecular devices) or POWERSCAN HT (DS Pharma Biomedical). The test results were analyzed in Excel, and the NQO1 activity upon addition of 400 nM of test compound was calculated as a ratio from the base without the compound.
The results of each test compound in this test are shown in the following Table 2 (A: 5<NQO1 activity ratio, B: 3<NQO1 activity ratio 5, C: 1.5<NQO1 activity ratio 3).

Sequence of GST-fused human Keap1 (amino acid residues: 325-642) protein (Q14145 325-624 limits assumed): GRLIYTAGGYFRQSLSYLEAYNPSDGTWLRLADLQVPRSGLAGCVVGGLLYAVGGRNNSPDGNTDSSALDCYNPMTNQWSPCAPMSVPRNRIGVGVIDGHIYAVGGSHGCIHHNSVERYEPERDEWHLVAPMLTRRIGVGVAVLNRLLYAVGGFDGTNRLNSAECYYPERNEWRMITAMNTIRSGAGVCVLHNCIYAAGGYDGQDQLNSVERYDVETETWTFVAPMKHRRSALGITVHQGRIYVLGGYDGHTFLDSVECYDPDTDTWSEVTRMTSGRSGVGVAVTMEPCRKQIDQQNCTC

| pIC50 [1] | SMILES | fold induction at 0.4 µM [2] | activity ratio ([2]; NQO1 activity upon addition of 400 nM of test compound) |
| --- | --- | --- | --- |
| 7.52 to 8.00 | CC[C@H]1Cc2cccnc2CN(Cc2cc([C@H](CC(=O)O)c3cnc4c(nnn4C)c3C)cc3ccsc23)C1 [Example 76, (3S)-3-(3,7-Dimethyl-3H-[1,2,3]triazolo[4,5-b]pyridin-6-yl)-3-(7-{[(6S)-6-ethyl-5,6,7,9-tetrahydro-8H-pyrido[2,3-c]azepin-8-yl]methyl}-1-benzothiophen-5-yl)propanoic acid] | > 5 | – |
| ≥ 8.00 | Cc1c([C@H](c2cc(CN3Cc4nc(O)ccc4O[C@H](C4CC4)C3)c3sccc3c2)C(C)(C)C(=O)O)ccc2c1nnn2C [Example 14, (3S)-3-(7-{[(2R)-2-Cyclopropyl-7-hydroxy-2,3-dihydropyrido[2,3-f][1,4]oxazepin-4(5H)-yl]methyl}-1-benzothiophen-5-yl)-3-(1,4-dimethyl-1H-benzotriazol-5-yl)-2,2-dimethylpropanoic acid] | > 5 | – |
| 5.52 to 6.52 | CC[C@@H]1CN(Cc2cc([C@H](c3ccc4c(nnn4C)c3C)C(C)(C)C(=O)O)cc3ccsc23)Cc2nc(O)ccc2O1 [Example 12, (3R)-3-(1,4-Dimethyl-1H-benzotriazol-5-yl)-3-(7-{[(2R)-2-ethyl-7-hydroxy-2,3-dihydropyrido[2,3-f][1,4]oxazepin-4(5H)-yl]methyl}-1-benzothiophen-5-yl)-2,2-dimethylpropanoic acid] | – | – |
| 7.52 to 8.00 | CC[C@H]1Cc2cccnc2CN(Cc2cc([C@@H](CC(=O)O)c3cnc4c(nnn4C)c3C)cc3ccsc23)C1 [Example 75, (3R)-3-(3,7-Dimethyl-3H-[1,2,3]triazolo[4,5-b]pyridin-6-yl)-3-(7-{[(6S)-6-ethyl-5,6,7,9-tetrahydro-8H-pyrido[2,3-c]azepin-8-yl]methyl}-1-benzothiophen-5-yl)propanoic acid] | > 5 | – |
| 7.52 to 8.00 | CC[C@H]1Cc2ccc(O)nc2CN(Cc2cc([C@@H](CC(=O)O)c3cnc4c(nnn4C)c3C)cc3ccsc23)C1 [Example 80, (3R)-3-(3,7-Dimethyl-3H-[1,2,3]triazolo[4,5-b]pyridin-6-yl)-3-(7-{[(6S)-6-ethyl-2-hydroxy-5,6,7,9-tetrahydro-8H-pyrido[2,3-c]azepin-8-yl]methyl}-1-benzothiophen-5-yl)propanoic acid] | > 5 | – |
| 7.52 to 8.00 | CC[C@@H]1CN(Cc2cc([C@H](CC(=O)O)c3ccc4c(nnn4CC(C)(C)O)c3C)cc3ccsc23)Cc2nc(O)ccc2O1 [Example 20, (3S)-3-(7-{[(2R)-2-Ethyl-7-hydroxy-2,3-dihydropyrido[2,3-f][1,4]oxazepin-4(5H)-yl]methyl}-1-benzothiophen-5-yl)-3-[1-(2-hydroxy-2-methylpropyl)-4-methyl-1H-benzotriazol-5-yl]propanoic acid] | 3 to 5 | – |
| 7.52 to 8.00 | CC[C@@H]1CN(Cc2cc([C@@H](CC(=O)O)c3ccc4c(nnn4CCN(C)C)c3C)cc3ccsc23)Cc2nc(O)ccc2O1 [Example 25, (3R)-3-{1-[2-(Dimethylamino)ethyl]-4-methyl-1H-benzotriazol-5-yl}-3-(7-{[(2R)-2-ethyl-7-hydroxy-2,3-dihydropyrido[2,3-f][1,4]oxazepin-4(5H)-yl]methyl}-1-benzothiophen-5-yl)propanoic acid] | > 5 | – |
| 7.52 to 8.00 | CC[C@@H]1CN(Cc2cc(C(CC(=O)O)c3ccc4c(nnn4CCCS(C)(=O)=O)c3C)cc3ccsc23)Cc2nc(O)ccc2O1 (stereo partly drawn) [Example 62, 3-(7-{[(2R)-2-Ethyl-7-hydroxy-2,3-dihydropyrido[2,3-f][1,4]oxazepin-4(5H)-yl]methyl}-1-benzothiophen-5-yl)-3-{4-methyl-1-[3-(methylsulfonyl)propyl]-1H-benzotriazol-5-yl}propanoic acid] | > 5 | – |
| 7.52 to 8.00 | CC[C@@H]1CN(Cc2cc([C@@H](CC(=O)O)c3ccc4c(nnn4CC(F)(F)F)c3C)cc3ccsc23)Cc2nc(O)ccc2O1 (single isomer, unassigned) [Example 28] | – | – |
| ≥ 8.00 | CC[C@H]1Cc2ccc(O)nc2CN(Cc2cc([C@H](CC(=O)O)c3cc(Cl)c4c(nnn4C)c3C)cc3ccsc23)C1 [Example 85, (3S)-3-(7-Chloro-1,4-dimethyl-1H-benzotriazol-5-yl)-3-(7-{[(6S)-6-ethyl-2-hydroxy-5,6,7,9-tetrahydro-8H-pyrido[2,3-c]azepin-8-yl]methyl}-1-benzothiophen-5-yl)propanoic acid] | > 5 | – |
| 7.52 to 8.00 | CC[C@@H]1CN(Cc2cc([C@@H](CC(=O)O)c3ccn4c(C)nnc4c3C)cc3ccsc23)Cc2nc(O)ccc2O1 (single isomer, unassigned) [Example 53, (3S*)-3-(3,8-Dimethyl[1,2,4]triazolo[4,3-a]pyridin-7-yl)-3-(7-{[(2R)-2-ethyl-7-hydroxy-2,3-dihydropyrido[2,3-f][1,4]oxazepin-4(5H)-yl]methyl}-1-benzothiophen-5-yl)propanoic acid] | – | B (B: 3<NQO1 activity ratio 5) |
| 6.52 to 7.52 | Cc1c(C(CC(=O)O)c2cc(CN3Cc4nc(O)ccc4OC4(CC4)[C@@H]3C)c3sccc3c2)ccc2c1nnn2C (single isomer, unassigned) [Example 61, (3S*)-3-(1,4-Dimethyl-1H-benzotriazol-5-yl)-3-(7-{[(3′S)-7′-hydroxy-3′-methyl-3′H-spiro[cyclopropane-1,2′-pyrido[2,3-f][1,4]oxazepin]-4′ (5′H)-yl]methyl}-1-benzothiophen-5-yl)propanoic acid] | – | – |
| 6.52 to 7.52 | CC[C@@H]1CN(Cc2cc(C(CC(=O)O)c3ccc4c(nnn4C)c3C)cc3ccsc23)Cc2ncc(O)cc2O1 (single isomer, unassigned) [Example 66, (3S*)-3-(1,4-Dimethyl-1H-benzotriazol-5-yl)-3-(7-{[(2R)-2-ethyl-8-hydroxy-2,3-dihydropyrido[2,3-f][1,4]oxazepin-4(5H)-yl]methyl}-1-benzothiophen-5-yl)propanoic acid] | – | – |
| 6.52 to 7.52 | Cc1c([C@H](CC(=O)O)c2cc(CN3Cc4nc(O)ccc4CC(C4CC4)C3)c3sccc3c2)ccc2c1nnn2C (single isomer, unassigned) [Example 89, (3R)-3-(7-{[(6R*)-6-Cyclopropyl-2-hydroxy-5,6,7,9-tetrahydro-8H-pyrido[2,3-c]azepin-8-yl]methyl}-1-benzothiophen-5-yl)-3-(1,4-dimethyl-1H-benzotriazol-5-yl)propanoic acid] | – | – |
| 5.52 to 6.52 | Cc1c(C(CC(=O)O)c2cc(CN3Cc4nc(O)ccc4OC4(CC4)[C@H]3C)c3sccc3c2)ccc2c1nnn2C (single isomer, unassigned) [Example 59, (3S*)-3-(1,4-Dimethyl-1H-benzotriazol-5-yl)-3-(7-{[(3′R)-7′-hydroxy-3′-methyl-3′H-spiro[cyclopropane-1,2′-pyrido[2,3-f][1,4]oxazepin]-4′ (5′H)-yl]methyl}-1-benzothiophen-5-yl)propanoic acid] | – | – |
| 6.52 to 7.52 | Cc1c([C@H](CC(=O)O)c2cc(CN3Cc4nc(O)ccc4CC(C4CC4)C3)c3sccc3c2)cnc2c1nnn2C (single isomer, unassigned) [Example 91, (3R)-3-(7-{[(6S*)-6-Cyclopropyl-2-hydroxy-5,6,7,9-tetrahydro-8H-pyrido[2,3-c]azepin-8-yl]methyl}-1-benzothiophen-5-yl)-3-(3,7-dimethyl-3H-[1,2,3]triazolo[4,5-b]pyridin-6-yl)propanoic acid] | – | – |
